Source: paper PMC12794188, “Maternal–Fetal Transfer and Toxicokinetics of 2,2′,5,5′-Tetrachlorobiphenyl, [^14C]-PCB52, Following Intratracheal Administration” (Chemical Research in Toxicology, 2025)

Assay: Toxicokinetics and tissue disposition of total [14C] radioactivity after a single intratracheal dose of [14C]-PCB52 (0.157 mg/kg) in pregnant rats at GD 11±1
Type: in vivo, Sprague–Dawley rats
Description: Female Sprague–Dawley rats (8 weeks old) weighing 237–269.7 g (mean = 247.5 g) (Envigo RMS, LLC, Indianapolis, IN) were used for this study. All animal experiments were performed following the protocols evaluated and approved by the University of Iowa Institutional Animal Care and Use Committee (approval number 3091097). After arrival, the animals were acclimated for 7 days. The animals were housed in a light and temperature-controlled environment with ad libitum access to food and water during quarantine and throughout the study. Timed pregnancy was achieved by harem mating. , Briefly, one male and two female rats were placed together in the evening and checked for vaginal plug the following day. If vaginal plug was present, the male was removed from the breeding cage, and the gestation day 0 (GD 0), 0-day post coitum was assigned. Pregnancies were confirmed by ultrasound scan at GD 9. The dams were exposed at GD 11 (±1 day) to capture the period of early organogenesis and hormonal function, which falls within week 3 of human embryonic development. ,− On the day of the experiment, pregnant rats were intratracheally administered an average of 40 μg (range, 35–45 μg) of [^14C]-PCB52 in 100 μL of exposure solution. Although the dose used in this study exceeded the tolerable daily intake (TDI) of PCBs for healthy individuals, which is 1.6 μg per day for an individual weighing 80 kg, the use of higher acute doses has been established in toxicological studies intended for risk assessment. The intratracheal instillation method was chosen for administering [^14C]-PCB52 to represent inhalation exposures, capture exhaled concentration, and efficiently utilize the limited availability of the cost-intensive radiolabeled PCB52. , Although inhalation exposure would better represent real-world exposures to airborne LC-PCBs, it would not allow us to accurately measure the amount of PCB52 exhaled into the air after exposure and is experimentally infeasible. […] All intratracheal instillations were done under light anesthesia, achieved using a 4% isoflurane concentration via a Fortec vaporizer (Cyprane, Keighley, UK). The animals recovered from anesthesia within 1 min. Subsequently, the animals were housed within a cylindrical glass chamber measuring 2 L in volume, equipped with glass drainage mechanisms to facilitate urine collection and a metallic screen to segregate urine from feces (as in Figure S1). Air was drawn from the chamber at 6.0 L/min through a cartridge containing the XAD-2 polymeric resin to capture any exhaled [^14C]-PCB52. For periods longer than 24 h postexposure, exposed dams were placed in a metabolic cage, which was fitted with a cartridge containing XAD-2 to capture exhaled [^14C]-PCB52 as in other end points.
Maternal blood, urine, and feces samples were collected immediately before and at 0.21, 1.67, 12, 24, 48, and 96 h after lung dosing. The exposed dams were euthanized using 4% isoflurane, followed by cervical dislocation and exsanguination via a cardiac puncture. Euthanasia was consistently performed during the light cycle. Dams’ fur was wiped and analyzed for radioactivity. Using the retro-orbital blood collection method, 0.5–1.5 mL ([…] of an exposed pregnant rat’s body weight) of blood sample was collected from each of the dams until the individual dams were necropsied for whole-body tissue harvesting. At the end of the exposure period, the chamber’s interior walls were rinsed separately with water and acetone/hexane (25 – 45 mL) and wiped to measure residues. From the collected whole blood samples, 100 μL were aliquoted into three vials each, and the remaining blood was allowed to clot at room temperature before being centrifuged to yield serum. The placentas, developing fetuses, and whole-body tissue samples were harvested immediately before exposure and at 0.21, 1.67, 12, 24, and 96 h postexposure. […]

[1] = Mammary glands, 0.21 h post-exposure
[2] = Mammary glands, 1.67 h post-exposure
[3] = Mammary glands, 12 h post-exposure
[4] = Mammary glands, 24 h post-exposure
[5] = Mammary glands, 96 h post-exposure
[6] = Matter in duodenum, 0.21 h post-exposure
[7] = Matter in duodenum, 1.67 h post-exposure
[8] = Matter in duodenum, 12 h post-exposure
[9] = Matter in duodenum, 24 h post-exposure
[10] = Matter in duodenum, 96 h post-exposure
[11] = Matter in intestine, 0.21 h post-exposure
[12] = Matter in intestine, 1.67 h post-exposure
[13] = Matter in intestine, 12 h post-exposure
[14] = Matter in intestine, 24 h post-exposure
[15] = Matter in intestine, 96 h post-exposure
[16] = Matter in stomach, 0.21 h post-exposure
[17] = Matter in stomach, 1.67 h post-exposure
[18] = Matter in stomach, 12 h post-exposure
[19] = Matter in stomach, 24 h post-exposure
[20] = Matter in stomach, 96 h post-exposure

Clc1ccc(Cl)c(-c2cc(Cl)ccc2Cl)c1 [PCB52, 2,2′,5,5′-Tetrachlorobiphenyl]
Conc. per mg wet tissue (Esophagus, 96 h post-exposure): 0.25 dpm/mg
Percent tissue distribution (Esophagus, 96 h post-exposure): 0.003%
AUC_%Extrap (Fetus): 9.23%
Terminal elimination half-life (t1/2) (Fetus): 34.78 h
maternal serum exposure ratio (Fetus): 0.27
AUC_%Extrap (Heart): 6.21%
Terminal elimination half-life (t1/2) (Heart): 26.21 h
Conc. per mg wet tissue (Heart, 96 h post-exposure): 0.61 dpm/mg
AUC_%Extrap (Kidney): 13.09%
Terminal elimination half-life (t1/2) (Kidney): 35.41 h
AUC_%Extrap (Liver): 14.37%
Terminal elimination half-life (t1/2) (Liver): 42.13 h
Conc. per mg wet tissue (Liver, 0.21 h post-exposure): 55.77 dpm/mg
Percent tissue distribution (Liver, 0.21 h post-exposure): 17.36%
Conc. per mg wet tissue (Liver, 1.67 h post-exposure): 23.78 dpm/mg
Percent tissue distribution (Liver, 1.67 h post-exposure): 6.58%
Conc. per mg wet tissue (Liver, 12 h post-exposure): 11.09 dpm/mg
Percent tissue distribution (Liver, 12 h post-exposure): 1.88%
Conc. per mg wet tissue (Liver, 24 h post-exposure): 8.22 dpm/mg
Percent tissue distribution (Liver, 24 h post-exposure): 1.63%
Conc. per mg wet tissue (Liver, 96 h post-exposure): 1.16 dpm/mg
Percent tissue distribution (Liver, 96 h post-exposure): 0.41%
AUC_%Extrap (Lung): 4.66%
Terminal elimination half-life (t1/2) (Lung): 22.05 h
AUC_%Extrap (Mammary glands): 15.15%
Terminal elimination half-life (t1/2) (Mammary glands): 34.16 h
Conc. per mg wet tissue [1]: 5.39 dpm/mg
Percent tissue distribution [1]: 0.28%
Conc. per mg wet tissue [2]: 2.46 dpm/mg
Percent tissue distribution [2]: 1.21%
Conc. per mg wet tissue [3]: 0.74 dpm/mg
Percent tissue distribution [3]: 1.18%
Conc. per mg wet tissue [4]: 1.55 dpm/mg
Percent tissue distribution [4]: 0.90%
Conc. per mg wet tissue [5]: 1.67 dpm/mg
Percent tissue distribution [5]: 0.18%
AUC_%Extrap (Matter in Colon): 23.30%
Terminal elimination half-life (t1/2) (Matter in Colon): 40.00 h
AUC_%Extrap (Matter in amp colon): 13.09%
Terminal elimination half-life (t1/2) (Matter in amp colon): 30.46 h
AUC_%Extrap (Matter in duodenum): 26.66%
Terminal elimination half-life (t1/2) (Matter in duodenum): 34.63 h
Conc. per mg wet tissue [6]: 6.81 dpm/mg
Percent tissue distribution [6]: 0.44%
Conc. per mg wet tissue [7]: 51.01 dpm/mg
Percent tissue distribution [7]: 0.57%
Conc. per mg wet tissue [8]: 14.38 dpm/mg
Percent tissue distribution [8]: 0.16%
Conc. per mg wet tissue [9]: 16.72 dpm/mg
Percent tissue distribution [9]: 0.19%
Conc. per mg wet tissue [10]: 0.68 dpm/mg
Percent tissue distribution [10]: 0.33%
AUC_%Extrap (Matter in intestine): 2.18%
Terminal elimination half-life (t1/2) (Matter in intestine): 17.41 h
Conc. per mg wet tissue [11]: 10.76 dpm/mg
Percent tissue distribution [11]: 0.70%
Conc. per mg wet tissue [12]: 1.07 dpm/mg
Percent tissue distribution [12]: 4.97%
Conc. per mg wet tissue [13]: 0.75 dpm/mg
Percent tissue distribution [13]: 1.53%
Conc. per mg wet tissue [14]: 13.86 dpm/mg
Percent tissue distribution [14]: 2.58%
Conc. per mg wet tissue [15]: 0.41 dpm/mg
Percent tissue distribution [15]: 0.02%
AUC_%Extrap (Matter in stomach): 4.07%
Terminal elimination half-life (t1/2) (Matter in stomach): 16.50 h
Conc. per mg wet tissue [16]: 28.20 dpm/mg
Percent tissue distribution [16]: 0.47%
Conc. per mg wet tissue [17]: 5.71 dpm/mg
Percent tissue distribution [17]: 0.06%
Conc. per mg wet tissue [18]: 1.71 dpm/mg
Percent tissue distribution [18]: 0.09%
Conc. per mg wet tissue [19]: 1.57 dpm/mg
Percent tissue distribution [19]: 1.52%
Conc. per mg wet tissue [20]: 0.18 dpm/mg
Percent tissue distribution [20]: 0.04%
AUC_%Extrap (Muscle): 96.68%
Terminal elimination half-life (t1/2) (Muscle): 1231.42 h
Conc. per mg wet tissue (Muscle, 0.21 h post-exposure): 1.58 dpm/mg
Percent tissue distribution (Muscle, 0.21 h post-exposure): 28.65%
Conc. per mg wet tissue (Muscle, 96 h post-exposure): 1.58 dpm/mg
AUC_%Extrap (Ovary): 25.93%
Terminal elimination half-life (t1/2) (Ovary): 46.53 h
Conc. per mg wet tissue (Ovary, 0.21 h post-exposure): 19.85 dpm/mg
